The values that follow come from patent publication US20090057619A1, “Compositions and Visual Perception Changing Methods” (priority 2007, published 2009).

The conditions of data set [1]: cited from earlier work; for reported pKa: @ 25° C.
Data set [2] in a line: pKa of BTB estimated by spectrophotometric titration in water and in model dishwashing detergent. In kind it is physicochemical. The text has this:
Example of color change—pKa measurements—As outlined in the methods described by Brode (Journal of the American Chemical Society, Vol. 46, pp 581-596, 1924) and Puschett et al (Talanta, Vol. 38, Issue #3, pp 335-338, 1991), the pKa of bromothymol blue (BTB) is estimated in water and a model dishwashing detergent containing approximately 30% surfactant (combination of alkylethoxysulfonate and amine oxide). In the absence of detergent, stock solutions of BTB (6-20 ppm) are first adjusted to a pH of 11-12 and titrated with 1% HCl down to a pH of 4.0. After each pH adjustment the absorbance peak at 617 nm (Abs1) is measured and pKa estimated from the abscissa of the point of inflection. In similar fashion, BTB is added at a 60 ppm level to the dishwashing detergent, diluted 10-100 fold with deionized water and titrated with 1% HCl.

Data set [3] in a line: Ratio of absorbances Abs1:Abs2 as a function of product dilution, pH kept at 9.0. In kind it is physicochemical. The settings on record: pH 9.0; for Abs1:Abs2: no detergent. As to the method:
Example of color change—pH is kept constant upon dilution—As shown in Tables 1 and 2 below, bromothymol blue (BTB) is assessed in representative nil-dye versions of representative hand dishwashing products: a) Dawn® Bleach Alternative, b) Dreft®, and c) nil-dye Fairy® Liquid. In a typical procedure, BTB is directly added to the hand dishwashing detergent (60 ppm BTB) and the visible spectrum monitored (λ=400-700 nm) as a function of product dilution with deionized water. After each dilution, the detergent solution is adjusted to pH 9.0 with 0.1% NaOH and the ratio of absorbances at λmax=615-635 nm (Abs1) and λmax=395-435 nm (Abs2) measured. For comparison, a 60 ppm aqueous solution of BTB is prepared and sequentially diluted with deionized water, the pH again adjusted to 9.0 after each dilution (Table 2).
For the dishwashing detergents containing BTB, the ratio Abs1:Abs2 increases upon dilution, the most significant increase occurring at product concentrations ≦2.5%. […] Absorption measurements for Tables 1 and 2 are made on an HP UV/Visibile 8453 Spectrophotometer (Hewlett-Packard).

For the molecule `Cc1c(C2(c3cc(Br)c(O)c(Br)c3C)OS(=O)(=O)c3ccccc32)cc(Br)c(O)c1Br` [bromocresol green], the “reported pKa” value in data set [1] was 4.7.
`Cc1c(C2(c3cc(C(C)C)c(O)c(Br)c3C)OS(=O)(=O)c3ccccc32)cc(C(C)C)c(O)c1Br` [BTB, bromothymol blue]: the pKa was 8.2 in data set [2] (model dishwashing detergent diluted with deionized water, detergent conc 1 %, model dishwashing detergent (approx. 30% surfactant)); 9 in data set [2] (model dishwashing detergent diluted with deionized water, detergent conc 5 %, model dishwashing detergent (approx. 30% surfactant)); 9.4 in data set [2] (model dishwashing detergent diluted with deionized water, detergent conc 10 %, model dishwashing detergent (approx. 30% surfactant)); 7.3 in data set [2] (water without detergent, detergent conc 0 % (water, absence of detergent)). In data set [1], the “reported pKa” value is 7.1. Besides, in data set [1], the “pKa, literature value” is given as 7.1. For the same molecule, the “Abs1:Abs2” value in data set [3] (BTB in water 0.3 ppm (product conc. 0.5 %)) was determined as 5.00; in data set [3] (BTB in water 0.6 ppm (product conc. 1 %)), 4.68; in data set [3] (BTB in water 1.2 ppm (product conc. 2 %)), 4.14; in data set [3] (BTB in water 2.4 ppm (product conc. 4 %)), 4.59; in data set [3] (BTB in water 3.0 ppm (product conc. 5 %)), 4.37; in data set [3] (BTB in water 3.6 ppm (product conc. 6 %)) it was 4.52. Also, the “Abs1:Abs2” value in data set [3] (BTB in water 4.8 ppm (product conc. 8 %)) was determined as 4.35; in data set [3] (BTB in water 6.0 ppm (product conc. 10 %)) it was 4.47; in data set [3] (BTB in water 7.2 ppm (product conc. 12 %)) it was 4.31; in data set [3] (BTB in water 9.6 ppm (product conc. 16 %)), 4.29; in data set [3] (BTB in water 10.8 ppm (product conc. 18 %)) it was 4.23; in data set [3] (BTB in water 12.0 ppm (product conc. 20 %)), 4.16. The “change in the ratio Abs1:Abs2 upon dilution” value in data set [3] (dilution with deionized water) is on record as “no significant change”.
As for `Cc1cc(C2(c3cc(C)c(O)c(Br)c3C)OS(=O)(=O)c3ccccc32)c(C)c(Br)c1O` [bromoxylenol blue], the “reported pKa” value in data set [1] is 7.0.
Consider `Cc1cc(C2(c3cc(C)c(O)c(Br)c3)OS(=O)(=O)c3ccccc32)cc(Br)c1O` [bromocresol purple], for which the “reported pKa” value in data set [1] was 6.3.
In the case of `O=S1(=O)OC(c2cc(Br)c(O)c(Br)c2)(c2cc(Br)c(O)c(Br)c2)c2ccccc21` [bromophenol blue], the “reported pKa” value in data set [1] is 4.0.
